Among the test systems are U251 CNS; IGROV1 ovarian; SK-OV-3 ovarian; SF-295 CNS; T-47D breast; SF-268 CNS; SK-MEL-28 melanoma; A498 renal; COLO 205 colon; MDA-N.
Holding throughout (test): NCI tumour cell line growth inhibition, 48 h

The structures appear in SMILES notation.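 Each compound was tested at five concentrations against cells in 96-well plates for 48 hours. TGI: total growth inhibition.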 Some results are limits rather than exact numbers.

For the compound `CCC(C)C(=O)OC1CC2(C)C(c3ccoc3)OC(=O)CC23OC2(C)OC34C(OC(=O)C(C)C)C3(O)C(OC(=O)C5(C)OC5C)C5(C)CC3(O)C(C)(C5CC(=O)OC)C14O2` (centres undefined), the TGI in the test with U251 CNS, in the test with IGROV1 ovarian, in the test on SK-OV-3 ovarian, in the test on SF-295 CNS, with T-47D breast and with SF-268 CNS was more than 100 µM each time. Moreover, the TGI with SK-MEL-28 melanoma is more than 100 µM; in the test with A498 renal it was more than 100 µM; with COLO 205 colon, 57.5 µM; in the test with MDA-N it was more than 100 µM.
As to `CCC(=O)Oc1c2ccsc2c(OC(=O)CC)c2ccsc12`, the TGI with U251 CNS was 1.65 µM; in the test on IGROV1 ovarian, 3.65 µM; in the test with SK-OV-3 ovarian it was 15.8 µM; in the test with SF-295 CNS, 0.675 µM; with T-47D breast, 3.88 µM; in the test on SF-268 CNS, 2.29 µM. Further, the TGI was 0.353 µM with SK-MEL-28 melanoma, 15 µM in the test with A498 renal, 10.6 µM with COLO 205 colon and 0.136 µM in the test with MDA-N.
Regarding `c1ccc(/C(=N/Nc2ccccn2)c2ncccn2)cc1`, the TGI in the test with U251 CNS was more than 51.6 µM; in the test with IGROV1 ovarian, more than 21 µM; in the test on SK-OV-3 ovarian, more than 28.7 µM; in the test with SF-295 CNS, more than 44.6 µM; in the test with T-47D breast it was more than 100 µM; in the test on SF-268 CNS, 5.06 µM. Besides, the TGI is more than 78.1 µM with SK-MEL-28 melanoma, more than 100 µM in the test on A498 renal, more than 71.2 µM with COLO 205 colon and more than 100 µM in the test on MDA-N.
With `CC(=O)OC/C=C(/C=C/CNC1CCCCC1)OC(C)=O`, the TGI turned out to be 32.9 µM in the test on U251 CNS; 34.3 µM in the test with IGROV1 ovarian; 33.8 µM in the test on SK-OV-3 ovarian; 33.2 µM with SF-295 CNS; 36.7 µM in the test with T-47D breast; 35.5 µM with SF-268 CNS. In addition, the TGI came to 30.9 µM in the test on SK-MEL-28 melanoma, 33.9 µM in the test with A498 renal, 28.2 µM in the test on COLO 205 colon and 31.9 µM in the test with MDA-N.
For the compound `NC1CNC(=O)c2c(Cl)sc(Cl)c21` (centres undefined), the TGI in the test on U251 CNS, with IGROV1 ovarian, in the test with SK-OV-3 ovarian, in the test with SF-295 CNS, with T-47D breast and in the test on SF-268 CNS was more than 100 µM in each case. Besides, the TGI in the test on SK-MEL-28 melanoma, with A498 renal, in the test with COLO 205 colon and in the test with MDA-N was more than 100 µM in each case.
Turning to `Cc1c2ncccc2cc2oc3ccccc3c(=O)c12`, the TGI in the test on IGROV1 ovarian is more than 100 µM; in the test with SK-OV-3 ovarian it was more than 100 µM; in the test on SF-295 CNS, more than 100 µM; in the test with T-47D breast, 61.7 µM; in the test on SF-268 CNS, more than 100 µM; with SK-MEL-28 melanoma, more than 100 µM. Also, the TGI in the test with A498 renal, with COLO 205 colon and in the test with MDA-N was more than 100 µM throughout.
For `COc1cc(I)c2c3c1OC1C34CCN(C)C(C2)C4=CC(I)C1(OC)OC` (centres undefined), the TGI in the test on U251 CNS is 33.9 µM; in the test with IGROV1 ovarian, 54.3 µM; with SK-OV-3 ovarian it was 68 µM; with SF-295 CNS, more than 100 µM; in the test with T-47D breast it was 31.1 µM; with SF-268 CNS, 61.5 µM. Further, the TGI with SK-MEL-28 melanoma was 47.5 µM; with A498 renal it was 86.4 µM; with COLO 205 colon, 45.2 µM; in the test on MDA-N it was 48 µM.
On to `C=c1c(OC)c(OC)c(O)c2c1=c1cc([N+](=O)[O-])cc(OC)c1=N2`, for which the TGI with U251 CNS, with IGROV1 ovarian, in the test on SK-OV-3 ovarian, in the test on SF-295 CNS, with T-47D breast and with SF-268 CNS was more than 100 µM in each case. The TGI with SK-MEL-28 melanoma, in the test with A498 renal, in the test on COLO 205 colon and in the test with MDA-N was more than 100 µM throughout.
On to `COC(=O)Cc1c([C@H]2[C@H](CC(=O)OC)c3ccccc3N2C(C)=O)[nH]c2ccccc12`, for which the TGI in the test on U251 CNS, in the test on IGROV1 ovarian, with SK-OV-3 ovarian, in the test with SF-295 CNS, in the test on T-47D breast and in the test on SF-268 CNS was more than 100 µM each time. The TGI in the test with SK-MEL-28 melanoma, with A498 renal, in the test on COLO 205 colon and with MDA-N was more than 100 µM each time.
On to `c1ccc2c3c(c(N4CCOCC4)nc2c1)CCCC3`, for which the TGI in the test on U251 CNS was more than 100 µM; in the test on IGROV1 ovarian, more than 100 µM; in the test with SK-OV-3 ovarian it was more than 100 µM; with SF-295 CNS it was more than 100 µM; in the test on T-47D breast, 72.8 µM; in the test on SF-268 CNS, more than 100 µM. Further, the TGI in the test on SK-MEL-28 melanoma is more than 100 µM; with A498 renal, 81.6 µM; with COLO 205 colon, 46.5 µM; in the test on MDA-N, more than 100 µM.
As for `OC1(c2ccc(Cl)cc2)c2ccc3ccccc3c2C2=N[C@H]3CCCC[C@@H]3N21` (some centres undefined), the TGI was 27.9 µM with U251 CNS; more than 100 µM with IGROV1 ovarian; 65.3 µM in the test on SK-OV-3 ovarian; 18.1 µM in the test on SF-295 CNS; 26.5 µM in the test with T-47D breast; more than 100 µM with SF-268 CNS. For the same compound, the TGI in the test on SK-MEL-28 melanoma is more than 100 µM; with A498 renal, 52.7 µM; with COLO 205 colon, more than 100 µM; with MDA-N it was more than 100 µM.
Consider `COc1c(C)c2nc3ccccc3[nH]c2c2c(=O)ccnc12`, for which the TGI in the test on U251 CNS, in the test on IGROV1 ovarian, in the test with SK-OV-3 ovarian, with SF-295 CNS, in the test with T-47D breast and with SF-268 CNS was more than 100 µM in each case. Besides, the TGI with SK-MEL-28 melanoma, in the test on A498 renal, in the test with COLO 205 colon and with MDA-N was more than 100 µM each time.
As to `O=c1oc2cc(O)ccc2c(O)c1C(c1ccc(C(c2c(O)c3ccc(O)cc3oc2=O)c2c(O)c3ccc(O)cc3oc2=O)cc1)c1c(O)c2ccc(O)cc2oc1=O`, the TGI in the test on U251 CNS, in the test with IGROV1 ovarian, in the test with SK-OV-3 ovarian, in the test on SF-295 CNS, in the test on T-47D breast and with SF-268 CNS was more than 100 µM each time. The TGI in the test on SK-MEL-28 melanoma, with A498 renal, in the test on COLO 205 colon and in the test on MDA-N was more than 100 µM throughout.

For the origin of these results see PubChem BioAssay (NCI).
